Data published in patent US5847160A, “Acetylenes disubstituted with 2-tetrahydropyranoxy-aryl and aryl of heteroaryl groups having retinoid-like biological activity” (Allergan, priority 1997, dated 1998).

Tested on: ornithine decarboxylase (ODC)
Assay: ODC assay: inhibition of TPA induction of ODC activity
Assay type: in vivo
Conditions: at conc 30 (nmol); TPA-induced ODC
From the text: The retinoic acid-like activity of these compounds is confirmed through the classic measure of retinoic acid activity involving the effects of retlnoic acid on ornithine decarboxylase. The original work on the correlation between retinoic acid and decrease in cell proliferation was done by Verma & Boutwell, Cancer Research, 1977, 37,2196-2201. That reference discloses that ornithine decarboxylase (ODC) activity increased precedent to polyamine biosynthesis. It has been established elsewhere that increases in polyamine synthesis can be correlated or associated with cellular proliferation. Thus, if ODC activity could be inhibited, cell hyperproliferation could be modulated. […] Activity of exemplary compounds of the present invention in the above- described ODC assay is disclosed in Table 2 which provides either IC80 (or other measured per cent inhibition at the indicated concentration) for the respective exemplary compound.

In order of falling “% of inhib” value:
1. COC(=O)c1ccc(C#Cc2ccc(OC3CCCCO3)c(C34CC5CC(CC(C5)C3)C4)c2)cc1 (stereo not drawn) [Compound 25]  61%
2. CCOC(=O)c1ccc(C#Cc2ccc(OC3CCCCO3)c(C34CC5CC(CC(C5)C3)C4)c2)cc1 (stereo not drawn) [Compound 9]  49%

Same assay, conditions: at conc 300 (nmol); TPA-induced ODC

In order of rising “% of inhib” value:
1. O=C(O)c1ccc(C#Cc2ccc(OC3CCCCO3)cc2)nc1 (stereo not drawn) [Compound 15, 6-[2-[[1-(2-tetrahydropyranoxy)]-4-phenyl]ethyn-1-yl]nicotinic acid]  44%
2. CCOC(=O)c1ccc(C#Cc2ccc(C34CC5CC(CC(C5)C3)C4)c(OC3CCCCO3)c2)cc1 (stereo not drawn) [Compound 18, Ethyl 4-[2-[[2-(1-adamantyl)-1-(2-tetrahydropyranoxy)]-5-phenyl]ethyn-1-yl]benzoate]  45%
3. O=C(O)c1ccc(C#Cc2ccc(C34CC5CC(CC(C5)C3)C4)c(OC3CCCCO3)c2)nc1 (stereo not drawn) [Compound 19]  45%
4. CCOC(=O)c1ccc(C#Cc2cccc(OC3CCCCO3)c2)nc1 (stereo not drawn) [Compound 16, Ethyl 6-[2-[[1-(2-tetrahydropyranoxy)]-3-phenyl]ethyn-1-yl]nicotinate]  52%
5. CCOC(=O)c1ccc(C#Cc2ccc(C34CC5CC(CC(C5)C3)C4)c(OC3CCCCO3)c2)nc1 (stereo not drawn) [Compound 17]  68%

Tested on: ornithine decarboxylase (ODC)
Assay: not given
Conditions: general knowledge; cited from earlier work

For CC1=C(/C=C/C(C)=C/C=C/C(C)=C/C(=O)O)C(C)(C)CCC1 [Retinoic acid], the “effect on ODC activity” value is given as “inhibits this induction of ODC activity by TPA”.
In the case of CCCCCCCCCCCCCC(=O)O[C@@H]1[C@@H](C)[C@@]2(O)[C@@H](C=C(CO)C[C@]3(O)C(=O)C(C)=C[C@@H]23)[C@@H]2C(C)(C)[C@]12OC(C)=O [12-0-tetradecanoylphorbol-13-acetate], the “effect on ODC activity” value is given as “induces ODC activity”.
